Measurements reported in patent US7285680B2, “β-alanine derivatives and the use thereof” (Ono Pharmaceutical Co., Ltd., priority 2002, dated 2007).

Biological target: human EDG-2 (Homo sapiens, UniProt Q92633)
Test: Evaluation of EDG-2 antagonistic activity by monitoring the change of intracellular calcium ion concentration
Type: cell-based
Conditions: CHO cells overexpressing human EDG-2 gene; LPA final concentration 100 nM; Fura2-AM intracellular calcium; compound 1 nM to 10 μM
Method: Evaluation of EDG-2 Antagonistic Activity by Monitoring the Change of Intracellular Calcium Ion Concentration
Evaluation of EDG-2 antagonistic activity was carried out by using Chinese hamster ovary (CHO) cells which overexpressed human EDG-2 gene. Those cells were cultured with Ham's F12 medium (GIBCO BRL company No.11765-047) containing 10% FBS (fetal bovine serum), penicillin/streptomycin and blasticidin (5 μg/ml). At first in order to uptake Fura2-AM (Dojindo company No.348-05831) into the cells, cells were incubated for 60 minutes at 37 degrees in Fura2-AM (5 μM) solution [Ham's F12 medium containing 10% FBS, 20 mM HEPES buffer (pH 7.4) and 2.5 mM probenecid (Sigma company No.P-8761)]. […] Plates were set in fluorescent drug screening system (Hamamatsu photonics company, FDSS-2000) and intracellular calcium ion concentration was measured for 30 seconds with no stimulation and then solution of the compound of the present invention represented by formula (I) was added. Five minutes after adding thereto LPA (final concentration: 100 nM) was added, the increase of intracellular calcium ion concentrations before and after the addition of LPA (excitation wave length: […]; fluorescent wave length: 500 nm) were measured every 3 seconds. […]

Chain of human EDG-2 (Q92633 whole entry): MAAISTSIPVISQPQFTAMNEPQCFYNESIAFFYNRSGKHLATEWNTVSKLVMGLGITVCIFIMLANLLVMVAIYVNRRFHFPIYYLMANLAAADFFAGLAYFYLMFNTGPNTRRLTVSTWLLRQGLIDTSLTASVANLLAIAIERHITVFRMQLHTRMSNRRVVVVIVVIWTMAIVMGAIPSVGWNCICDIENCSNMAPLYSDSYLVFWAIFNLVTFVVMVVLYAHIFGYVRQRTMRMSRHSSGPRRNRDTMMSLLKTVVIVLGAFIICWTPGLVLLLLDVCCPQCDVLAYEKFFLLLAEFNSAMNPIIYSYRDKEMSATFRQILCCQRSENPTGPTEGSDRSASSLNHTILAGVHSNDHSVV

Structure (SMILES): COc1ccc(OC)c(CCN(CCC(=O)O)C(=O)c2ccccc2-c2ccccc2C(=O)NCc2ccc(Cl)cc2)c1 [Example 3, 3-(N-((2-(2-((4-chlorobenzylamino)carbonyl)phenyl)phenyl)carbonyl)-N-(2-(2,5-dimethoxyphenyl)ethyl)amino)propanoic acid]
- IC50: 410 nM

Structure (SMILES): COc1ccc(OC)c(CCN(CCC(=O)O)C(=O)c2ccccc2-c2ccccc2C(=O)NCc2cccnc2)c1 [Example 3(1), 3-(N-((2-(2-((pyridin-3-ylmethylamino)carbonyl)phenyl)phenyl)carbonyl)-N-(2-(2,5-dimethoxyphenyl)ethyl)amino)propanoic acid]
- IC50: 780 nM
